{"source": "patent US20110262477A1", "about": "(priority 2008, published 2011)", "molecules": {"B1": {"name": "Eap: recombinant His-tagged staphylococcal envelope associated protein Eap (SEQ ID NO:4) purified from E. coli, vaccine antigen (protein, listed as Staphylococcus aureus)", "chain": "MKFKSLITTTLALGVLASTGANFNNNEASAAAKPLDKSSSSLHHGYSKVHVPYAITVNGTSQNILSSLTFNKNQNISYKDLEDRVKSVLKSDRGISDIDLRLSKQAKYTVYFKNGTKKVIDLKAGIYTADLINTSEIKAININVDTKKQVEDKKKDKANYQVPYTITVNGTSQNILSNLTFNKNQNISYKDLEDKVKSVLESNRGITDVDLRLSKQAKYTVNFKNGTKKVIDLKSGIYTANLINSSDIKSININVDTKKHIENKAKRNYQVPYSINLNGTSTNILSNLSFSNKPWTNYKNLTSQIKSVLKHDRGISEQDLKYAKKAYYTVYFKNGGKRILQLNSKNYTANLVHAKDVKRIEITVKTGTKAKADRYVPYTIAVNGTSTPILSDLKFTGDPRVGYKDISKKVKSVLKHDRGIGERELKYAKKATYTVHFKNGTKKVININSNISQLNLLYVQDIKKIDIDVKTGTKAKADSYVPYTIAVNGTSTPILSKLKISNKQLISYKYLNDKVKSVLKSERGISDLDLKFAKQAKYTVYFKNGKKQVVNLKSDIFTPNLFSAKDIKKIDIDVKQYTKSKKNK", "modifications": "His-tag"}, "B2": {"name": "Emp: recombinant His-tagged staphylococcal envelope associated protein Emp (SEQ ID NO:2) purified from E. coli, vaccine antigen (protein, listed as Staphylococcus aureus)", "chain": "MKKKLLVLTMSTLFATQIMNSNHAKASVTESVDKKFVVPESGINKIIPAYDEFKNSPKVNVSNLTDNKNFVASEDKLNKIADSSAASKIVDKNFVVPESKLGNIVPEYKEINNRVNVATNNPASQQVDKHFVAKGPEVNRFITQNKVNHHFITTQTHYKKVITSYKSTHVHKHVNHAKDSINKHFIVKPSESPRYTHPSQSLIIKHHFAVPGYHAHKFVTPGHASIKINHFCVVPQINSFKVIPPYGHNSHRMHVPSFQNNTTATHQNAKVNKAYDYKYFYSYKVVKGVKKYFSFSQSNGYKIGKPSLNIKNVNYQYAVPSYSPTHYVPEFKGSLPAPRV", "modifications": "His-tag"}, "B3": {"name": "IsdA: purified S. aureus sortase A substrate surface protein used as subunit vaccine antigen (protein, listed as Staphylococcus sp.)", "chain": "MTKHYLNSKYQSEQRSSAMKKITMGTASIILGSLVYIGADSQQVNAATEATNATNNQSTQVSQATSQPINFQVQKDGSSEKSHMDDYMQHPGKVIKQNNKYYFQTVLNNASFWKEYKFYNANNQELATTVVNDNKKADTRTINVAVEPGYKSLTTKVHIVVPQINYNHRYTTHLEFEKAIPTLADAAKPNNVKPVQPKPAQPKTPTEQTKPVQPKVEKVKPTVTTTSKVEDNHSTKVVSTDTTKDQTKTQTAHTVKTAQTAQEQNKVQTPVKDVATAKSESNNQAVSDNKSQQTNKVTKHNETPKQASKAKELPKTGLTSVDNFISTVAFATLALLGSLSLLLFKRKESK"}}, "key": {"[1]": {"test_system": "secreted 5′-nucleotidases from trophozoites of Trichomonas gallinae", "conditions": "Borges et al., 2007; cited from earlier work"}, "[2]": {"biological_target": "T1, 5′-ecto nucleotidase (human homologue of bacterial AdsA) (Homo sapiens, UniProt P21589)", "T1 sequence (P21589 27-549)": "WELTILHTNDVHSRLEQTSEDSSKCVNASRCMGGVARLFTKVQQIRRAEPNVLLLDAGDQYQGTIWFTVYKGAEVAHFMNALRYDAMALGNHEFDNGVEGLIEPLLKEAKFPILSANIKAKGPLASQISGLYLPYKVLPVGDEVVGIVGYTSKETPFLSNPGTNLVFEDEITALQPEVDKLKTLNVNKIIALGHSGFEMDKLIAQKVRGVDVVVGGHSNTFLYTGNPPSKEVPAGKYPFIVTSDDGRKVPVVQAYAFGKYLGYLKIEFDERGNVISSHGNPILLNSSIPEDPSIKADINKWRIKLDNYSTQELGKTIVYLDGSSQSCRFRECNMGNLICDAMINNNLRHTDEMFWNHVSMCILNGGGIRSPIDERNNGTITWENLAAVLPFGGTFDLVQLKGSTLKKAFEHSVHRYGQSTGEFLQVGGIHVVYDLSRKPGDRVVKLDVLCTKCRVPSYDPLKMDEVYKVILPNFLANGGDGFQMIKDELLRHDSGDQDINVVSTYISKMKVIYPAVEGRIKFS", "conditions": "cited from earlier work"}, "AdsA": {"test_system": "AdsA", "assay_type": "biochemical, S. aureus"}, "[3]": {"test_system": "adsA mutant staphylococci", "assay": "Survival of adsA staphylococci in rat blood with added adenosine (FIG. 17F)", "assay_type": "cell-based, S. aureus", "conditions": "addition of 1-100 μM adenosine"}, "S. aureus": {"test_system": "S. aureus", "conditions": "individual subunit vaccine antigens; none afforded complete protection; cited from earlier work"}, "[4]": {"test_system": "Nc1ncnc2c1ncn2[C@@H]1O[C@H](COP(=O)(O)O)[C@@H](O)[C@H]1O", "assay": "purified protein, by the assay type", "conditions": "pH 7.5; 37.0 °C"}, "[5]": {"biological_target": "T2, 5′-nucleotidases from rat liver membrane (Rattus norvegicus, UniProt P21588)", "T2 sequence (P21588 29-551)": "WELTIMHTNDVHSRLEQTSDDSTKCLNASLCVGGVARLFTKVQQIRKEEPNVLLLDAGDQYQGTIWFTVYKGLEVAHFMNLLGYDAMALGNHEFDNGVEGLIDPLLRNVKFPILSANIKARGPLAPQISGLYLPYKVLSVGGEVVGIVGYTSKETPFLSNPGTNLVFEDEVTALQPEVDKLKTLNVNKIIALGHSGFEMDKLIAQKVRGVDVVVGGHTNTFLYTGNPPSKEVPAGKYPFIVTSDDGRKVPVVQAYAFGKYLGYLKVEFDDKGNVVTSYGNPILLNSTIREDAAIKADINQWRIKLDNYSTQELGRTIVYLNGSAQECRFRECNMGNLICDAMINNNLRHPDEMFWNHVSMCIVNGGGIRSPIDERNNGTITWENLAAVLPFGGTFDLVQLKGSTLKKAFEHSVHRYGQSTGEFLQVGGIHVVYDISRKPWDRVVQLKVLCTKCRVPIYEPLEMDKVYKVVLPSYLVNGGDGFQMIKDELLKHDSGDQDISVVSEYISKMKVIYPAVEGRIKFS", "conditions": "Uchino et al., 1986; cited from earlier work"}, "[6]": {"test_system": "5′-nucleotidases from snake venom", "conditions": "Uchino et al., 1986; cited from earlier work"}, "S. aureus Newman": {"test_system": "S. aureus Newman", "assay": "Eap, Emp vaccination, murine renal abscess model (FIG. 5)", "conditions": "for histological lesions: kidneys of immunized mice, PBS mock 4/5, FIG. 5E"}}, "data": [{"molecule": "Nc1ncnc2c1ncn2[C@@H]1O[C@H](COP(=O)(O)CP(=O)(O)O)[C@@H](O)[C@H]1O", "note": "[AOPCP, α,β-methylene adenosine 5′-diphosphate]", "values": [{"measurement": "inhibition of secreted 5′-nucleotidases", "setting": "[1]", "value": "does not inhibit"}, {"measurement": "inhibition of 5′-ecto nucleotidase", "setting": "[2]", "value": "inhibitor"}]}, {"molecule": "O=S(=O)([O-])[O-].[Cu+2]", "note": "[CuSO4]", "values": [{"measurement": "inhibition of adenosine synthase activity", "setting": "AdsA", "value": "completely inhibited"}]}, {"molecule": "[Cl-].[Cl-].[Zn+2]", "note": "[ZnCl2]", "values": [{"measurement": "inhibition of adenosine synthase activity", "setting": "AdsA", "value": "completely inhibited"}]}, {"molecule": "Nc1ncnc2c1ncn2[C@@H]1O[C@H](CO)[C@@H](O)[C@H]1O", "note": "[adenosine]", "values": [{"measurement": "survival of adsA mutant staphylococci in blood", "setting": "[3]", "value": "dose-dependent increase in the survival"}]}, {"molecule": "IsdB: purified S. aureus sortase A substrate surface protein used as subunit vaccine antigen", "values": [{"measurement": "reduction in bacterial load", "setting": "S. aureus", "value": "significant reduction in bacterial load"}]}, {"molecule": "SdrD: purified S. aureus sortase A substrate surface protein used as subunit vaccine antigen", "values": [{"measurement": "reduction in bacterial load", "setting": "S. aureus", "value": "significant reduction in bacterial load"}]}, {"molecule": "SdrE: purified S. aureus sortase A substrate surface protein used as subunit vaccine antigen", "values": [{"measurement": "reduction in bacterial load", "setting": "S. aureus", "value": "significant reduction in bacterial load"}]}, {"molecule": "Staphylococcus aureus adenosine synthase A (AdsA, SasH), purified soluble recombinant form AdsA1-400 (from GST-AdsA expressed in Escherichia coli), SEQ ID NO:36 (Staphylococcus aureus subsp. aureus NCTC 8325)", "values": [{"measurement": "Km", "setting": "[4]", "value": 0.044, "unit": "µM"}]}, {"molecule": "melanocidins A and B", "values": [{"measurement": "inhibitory activity against 5′-nucleotidases", "setting": "[5]", "value": "potent inhibitory activity"}, {"measurement": "inhibitory activity against 5′-nucleotidases", "setting": "[6]", "value": "potent inhibitory activity"}]}, {"molecule": "nucleoticidin", "values": [{"measurement": "inhibitory activity against 5′-nucleotidases", "setting": "[5]", "value": "potent inhibitory activity"}, {"measurement": "inhibitory activity against 5′-nucleotidases", "setting": "[6]", "value": "potent inhibitory activity"}]}, {"molecule": "B1", "values": [{"measurement": "histological lesions", "setting": "S. aureus Newman", "value": "1/5"}]}, {"molecule": "B2", "values": [{"measurement": "titers of reactive IgG", "setting": "S. aureus Newman; ELISA IgG titers from vaccinated mice, FIG. 5D", "value": "> 64,000"}, {"measurement": "histological lesions", "setting": "S. aureus Newman", "value": "1/5"}]}, {"molecule": "B3", "values": [{"measurement": "reduction in bacterial load", "setting": "S. aureus", "value": "significant reduction in bacterial load"}]}]}
